The values below come from patent US10696622B2, “Synthesis of N-vinyl carboxylic acid amides” (Taminco BVBA, priority 2016, dated 2020).

The data set can be described thus: Solubility in solvent, CIPAC Method MT 181 at 20° C. The class given is physicochemical. An excerpt:
When used, the solvent introduced into first reaction zone 20 may be any suitable type of solvent. The solvent may include a single solvent, or it may comprise a mixture of two or more solvents. In some embodiments, the solvent may be selected based on its solubility with one or more of the starting materials in lines 110, 112, and/or 114, and/or with the reaction product produced within first reaction zone 20. For example, at least one of the starting materials introduced into and/or the product withdrawn from first reaction zone 20 may have a solubility of at least about 20, at least about 25, at least about 30, at least about 35, at least about 40, at least about 45, at least about 50, at least about 55 weight percent in the solvent introduced into first reaction zone 20. In addition, or the alternative, at least one of the reagents introduced into and/or the reaction product withdrawn from first reaction zone 20 may have a solubility of not more than about 80, not more than about 75, not more than about 70, not more than about 65 weight percent in the solvent introduced into first reaction zone 20. Solubility is measured at 20° C. using CIPAC Method MT 181, unless otherwise noted.

Consider `CC(O)NC=O` (centres unmarked) [1-hydroxyethylformamide], for which, where the note is “in formamide”, the “solubility of 1-hydroxyethylformamide in formamide” value is recorded as “about 60 weight percent”. Besides, the “solubility of 1-hydroxyethylformamide in isopropanol” value (in isopropanol, measured as described above (20° C., CIPAC Method MT 181)) worked out at 20.1 weight percent.
